Data reported in patent US12569459B2, “Compositions and methods for treating pulmonary edema or lung inflammation” (priority 2020, dated 2026).

Legend:
[1] = in vivo; set-up: species or system Sprague-Dawley rats; details: Sprague-Dawley, rat; for Cmax_D / Vz_F_obs / AUC(0-inf): inhaled or intranasal; for AUC(0-inf): 2.73 ug
Protocol: Sixty animals (plus two spare animals/sex/group) were anesthetized and dosed via intratracheal instillation of test or control materials for five consecutive days. On the day after the last dose a terminal blood collection was performed for clinical pathology, after which animals were euthanized and a gross examination of all organs was performed by a board-certified veterinary pathologist. Select tissues were collected for histopathology. […] Terminal blood collection was performed at two designated time points per animal up to 24 hours after administration for toxicokinetic evaluation. TK animals were euthanized without further evaluation after the final blood collection. All animals were acclimated for a minimum of seven days prior to the dosing procedure. Animals underwent baseline observations and examinations prior to the initiation of the study, and clinical observations and body weight monitoring were performed throughout the in-life portion of the study. All animals received the same dose volume (0.3 mL) of either test or control materials. This maximum feasible dose (MFD) is constrained by the maximum volume that can be safely and reproducibly (over five days) instilled into lungs of rats weighing 250 g to 350 g, which was determined in preliminary toxicology studies to be 0.3 mL. Actual doses delivered are reported as both μg/kg body weight and μg/gm wet lung weight. The toxicity phase animals were 72-135 days of age at the time of initial dosing. Males weighed between 256.52 g and 307.50 g with a mean±standard deviation of 286.74±11.77 g, and females weighed between 250.46 g and 299.01 g with a mean±standard deviation of 260.64±10.34 g. The TK phase animals were 68-144 days of age at the time of initial dosing. Males weighed between 261.23 g and 316.19 g; females weighed between 250.06 g and 280.32 g.
For toxicokinetic experiments, rats were anesthetized with combination of ketamine 40 mg/kg to 200 mg/kg and xylazine 1 mg/kg to 7 mg/kg, intraperitoneally (IP), to effect for dosing procedures, and dosed intratracheally with liothyronine sodium injection as previously described. Depending on the duration of time between dosing and the first or second blood collection time points, animals either had blood collected while still anesthetized under the injectable anesthetics, or if recovered, they were anesthetized with Isoflurane 2-5% and oxygen 1-1.5 L/minute by inhalation anesthesia via nose cone, as needed, to maintain adequate anesthesia depth (assessed by toe pinch). Topical proparicaine anesthetic ophthalmic solution was applied to each eye prior to performing the first blood collection and allowed time to take effect. Collection of serum samples for TK analysis was as described for serum chemistry samples above, and samples were stored at ≤−70° C. until assayed. Animals were euthanized with EUTHASOL (Virbac Corp., Fort Worth, TX)≥86 mg/kg IP to effect following the final blood collection.
For assessment of serum T3 levels samples were sent to the Fairview University of Minnesota Medical Center East Bank Diagnostic Laboratory for analysis, a clinical laboratory certified by CLIA and CAP. Prior to sending serum samples to the analytical lab each sample was diluted 1:4 or 1:8 in normal (0.9%) saline. […] Samples were analyzed by a chemiluminescence assay for total triiodothyronine (T3).
Toxicokinetic parameters were estimated using Phoenix 64 WinNonlin pharmacokinetic software version 7.0. (Pharsight Corp., Mountain View, CA). A non-compartmental (NCA) approach consistent with the route of administration was used for parameter estimation. […] Whenever possible, mean concentrations were derived from three animals/gender/time point. Parameters were estimated using sampling times relative to the start of each dose administration. The raw data was converted to ng/ml of serum by dividing the […] values by 100 and then multiplying by the dilution factor for that sample, either 4 or 8. […]

[2] = Preliminary dose-finding studies, intravenous vs intratracheal 3.0 μg neutral pH T3; format: in vivo, rats
Protocol: FIG. 6. […] A single dose of T3 was administered intravenously (diamonds) or via intratracheal instillation (squares). Samples were analyzed for total T3 using a chemiluminescence assay.

[3] = tested on: Akt; test: Akt phosphorylation in RLE-6TN cells under hyperoxia; format: cell-based, rat; details: 24 hours hyperoxia, T3 added for 20 minutes; vs room air control and hyperoxia alone
Protocol: The cells were lysed in lysis buffer containing 20 mM Tris HCl (pH 7.5), 150 mM NaCl, 1 mM EDTA, 1 mM EGTA, 1% (vol/vol) Triton X-100 with protease inhibitors (1 mM PMSF, 2 μg/ml pepstatin, and 10 μg/ml each of aprotinin and leupeptin), and phosphatase inhibitors (2.5 mM sodium pyrophosphate, 1 mM β-glycerophosphate, and 1 mM Na3VO4). The lysate was drawn 10 times through a 25-gauge needle on ice for further lysis and then was centrifuged at 13,000 rpm for 15 minutes at 4° C. The supernatant was collected, and the protein concentrations were determined by use of the BCA protein assay kit (Sigma-Aldrich, St. Louis, MO). Immediately after this step, equal amounts of protein were subjected to Western blotting analysis.

[4] = tested on: intubated patients with ARDS; test: Phase I/II trial of instilled T3: safety and clinical course; format: in vivo, human
Source text: Ten milliliters (mls) of reformulated, pH-adjusted commercial intravenous T3 solution (Par Pharmaceutical, Navi Mumbai, India; and XGen Pharmaceuticals DJB, Inc., Horseheads, NY) was instilled directly into the airspaces via a suction catheter in the endotracheal tube of intubated patients with ARDS. […] The study was approved by the Essentia IRB (Duluth, MN) and listed on ClinicalTrials.gov (NCT04115514).
Subsequent doses were given on days 4, 6, and 7. […] Despite Klebsiella aerogenes positive sputum culture, they were extubated on ventilator day 11. After discharge from the ICU, they had some confusion and delirium.

[5] = single oral dose of 50 micrograms; cited from earlier work
[6] = tested on: Sprague Dawley rats exposed to normobaric hyperoxia; test: Hyperoxia-induced lung injury (HALI) model with intraperitoneal T3
[7] = 3.0 μg T3 intratracheally vs 3.0 μg intravenously

SMILES: N[C@@H](Cc1cc(I)c(Oc2ccc(O)c(I)c2)c(I)c1)C(=O)O [T3, triiodothyronine]
- Cl_F_obs ([1]; female): 30.10 mL/h
- HL_Lambda_z ([1]; female): 2.85 h
- Cmax_D ([1]; female): 6.12 ng/mL/µg
- Vz_F_obs ([1]; female): 123.60 mL
- AUC(0-inf) ([1]; female): 89.7 ng·h/mL
- Cl_F_obs ([1]; male): 74.29 mL/h
- HL_Lambda_z ([1]; male): 3.17 h
- Cmax_D ([1]; male): 2.44 ng/mL/µg
- Vz_F_obs ([1]; male): 339.44 mL
- AUC(0-inf) ([1]; male): 36.3 ng·h/mL
- AUC after intratracheal relative to intravenous administration [2, 7]: ⅕
- T3 Cmax after intratracheal relative to intravenous administration [2, 7]: 1/17
- Acute effects on physiologic parameters (respiratory rate, O2 saturation, heart rate) ([2]; single intravenous delivery or five days of intratracheal delivery of 3.0 μg neutral pH T3): no acute effects on physiologic parameters
- Phosphorylation of Akt at Ser473 [3]: augmented phosphorylation of Akt at Ser473
- Follow-up status ([4]; Patient 1, 60 days): normal complete pulmonary function tests (PFTs) and chest radiograph at 60 days
- Ventilator day of extubation ([4]; Patient 1, four 50 μg doses from day 3): 11
- Tolerability of instillation ([4]; Patient 2): tolerated each installation without apparent adverse side effects
- Follow-up status ([4]; Patient 2, 60-day clinic follow up): asymptomatic with normal lung exam, chest radiograph and PFTs
- Ventilator day of extubation ([4]; Patient 2, escalating doses from ventilator day 3): 20
- Oxygenation ([4]; Patient 2, previously deteriorating): stabilized over the four treatment days
- Adverse pulmonary or systemic events ascribed to T3 instillation ([4]; Patients 1 and 2): Neither patient had significant adverse pulmonary or systemic events
- Vasopressor dose required to maintain mean arterial pressure ([4]; Patients 1 and 2): decreased in temporal association with the T3 instillation
- Time of peak serum concentration [5]: 2.5 h
- Time of physiologic effect of increased heart rate [5]: five hours
- BALF protein concentration ([6]; 48-hour and 60-hour time points of hyperoxia, vs hyperoxia alone): attenuated significantly the hyperoxic increases in the BALF protein concentration
- Serum total T3 ([6]; 95% oxygen 60 hours, intraperitoneal T3 supplementation (50 μg/kg bodyweight/24 hours)): augmented serum total T3
- MPO-positive cells in the lungs (immunostaining) ([6]; 95% oxygen 60 hours, vs hyperoxic lungs without T3): fewer MPO-positive cells
- BALF cell numbers ([6]; 48 hours and 60 hours of 95% oxygen, vs hyperoxia alone): significantly reduced the BALF cell numbers
- Lung morphology (histopathology) ([6]; 60 hours hyperoxia, systemic T3 supplementation): persistence of virtually normal lung morphology
- Lung MPO activity ([6]; 60 hours of hyperoxia): significantly reduced the hyperoxia-induced MPO activity
